Experiment: Water solubility of the agrochemical active compound alone at 25° C.
Assay type: physicochemical

Row | SMILES | water solubility
1 | CCS(=O)(=O)c1cccnc1-c1nc2cc(S(=O)(=O)C(F)(F)F)ccc2o1 [agrochemical active compound B, 2-[3-(Ethanesulfonyl)pyridin-2-yl]-5-(trifluoromethanesulfonyl)benzoxazole] | about 6 ppm
2 | Cc1cccc(-n2nnn(C)c2=O)c1COc1ccn(-c2ccc(Cl)cc2)n1 [agrochemical active compound C, 1-[2-({[1-(4-Chlorophenyl)-H-pyrazol-3-yl]oxy}methyl)-3-methylphenyl]-4-methyl-5-oxo-4,5-dihydro-1H-tetrazole] | about 0.03 ppm
3 | C#CCN1C(=O)COc2cc(F)c(N3C(=O)C4=C(CCCC4)C3=O)cc21 [flumioxazin, reference compound] | about 2 ppm
4 | CCNc1nc(CC)c(C(=O)NC(C#N)c2cccs2)s1 (centres unmarked) [ethaboxam, reference compound] | about 5 ppm
5 | CC1CC(C)(C)c2cccc(NC(=O)c3cn(C)nc3C(F)F)c21 (centres unmarked) [agrochemical active compound A, N-(1,1,3-trimethylindan-4-yl)-1-methyl-3-difluoromethylpyrazole-4-carboxylic acid amide] | about 20 ppm
